Experimental data from patent publication US20260242440A1, “NOVEL MEANS TO MODULATE NMDA RECEPTOR-MEDIATED TOXICITY” (FUNDAMENTAL PHARMA GMBH, priority 2018, published 2026).

Tests used:
[1] = test system: HEK293 cells; test: Luminescent cytotoxicity assay, HEK293 cells transfected with GRIN1 and GRIN2A or GRIN2B; format: cell-based, human; conditions: compound added 6 h after transfection; cell death 48 h after transfection
Description: HEK293 cells were cultured in Dulbecco's Modified Eagle Medium (DMEM, Gibco™ 41965-039) supplement with 10% Fetal Bovine Serum (FBS, Gibco™, 10270), 1% Sodium Pyruvate (Gibco™, 11360070), 1% MEM NEAA (GibcoT^M, 11140035) and 0.5% Penicillin-Streptomycin (P-S; Sigma, P0781) and Passagel5-25 were used for experiments.
To test the cytotoxicity of compounds according to the present invention, HEK293 cells (70-80% confluent) were transfected 24 hours after plating with both GRIN1 and GRIN2 Å or GRIN2B, respectively (1:[…]) with Lipofectamine 2000 according to manufacturer's instructions. The relative number of dead cells in the population at the indicated time points after transfection was measured with the CytoTox-Glo™ Cytotoxicity assay (Promega, G9290) according to manufacturer's instruction with minor modification. Briefly, 10% of total medium were mixed with 10 μL AAF-amino luciferin to reach a final volume at 200 μL with water, the dead cell relative luminescence units (DRLU) was measured by GloMax (Promega) in a 96 well white bottom polystyrene microplate (Corning Costar®, 3912). After all the measurements, lysis reagents have been added to the cells and 10% of lysate was used for the total cell relative luminescence units (TRLU) measurement. Cell death was calculated by the following equations: […]
For drug testing, P4, P8, P9, P13 and P15 were added to the medium at indicated concentration 6 h after transfection. DRLU, TRLU and cell death were measured and calculated 48 h after transfection.

[2] = test system: NMDA receptor; test: NMDA-induced calcium transients (Fura2 calcium imaging); format: cell-based, mouse; conditions: hippocampal neurons, 6 min NMDA (20 μM) application
Description: In a further experiment, the impact of P4 and P15 on NMDA-induced calcium transients was assessed. Briefly, for calcium imaging, primary hippocampal neurons on coverslips were loaded with the cell-permeable, high-affinity ratiometric calcium indicator Fura2-AM (Invitrogen™ F1221), at 1 μM in CO2-independent culture medium (CICM; CICM contains: 10 mM HEPES, 140 mM NaCl, 2.5 mM KCl, 1.0 mM MgCl2, 2.0 mM CaCl2, 1.0 mM Glycine, 35.6 mM Glucose and 0.5 mM Na-pyruvate) for 30 min at 37° C., then washed and left in CICM for another 30 min to allow for de-esterification. Fura2 was excited at 340/11 nm and 380/11 nm, and fluorescence emission was obtained from a 40× UV compatible objective (LUMPLFLN, Olympus) through a 510/20 nm emission filter. For quantification, ImageJ was used to calculate average background-subtracted fluorescence intensities for 340 and 380 nm excitation (F340 and F380) from each neuron. Intracellular calcium levels were plotted as F340/F380 ratios over time, from which the NMDA response amplitude and area under the curve (AUC) was calculated to quantify NMDA-induced calcium influx.

[3] = test system: primary mouse hippocampal neurons; test: NMDA induced cell death (excitotoxicity) in cultured primary neurons; format: cell-based; conditions: polypeptide expressed via rAAV infection on DIV3, NMDA 20 μM for 10 min, cell death assessed 24 h later
Description: Primary mouse hippocampal and cortical neurons were prepared and maintained as known. Briefly, hippocampi or cerebral cortex from P0 C57Bl/6NCrl mice were dissociated and plated at a density of 1.2*105/cm^2 in Growth Medium (GM), consisting of Neurobasal A medium (Gibco™, 10888022), 2% serum free B27™ Supplement (Gibco™, 17504044), 1% rat serum (Biowest, S2150), 0.5 mM L-Glutamine (Sigma, G7513) and 0.5% P-S. Cytosine β-D-arabinofuranoside (AraC; Sigma, C1768; 2.8 μM) was added on DIV3 to prevent the proliferation of glial cells. From DIV8, half of the medium was replaced by GM without Rat serum every 48 h until being used for experiments. 24 h before experiments, GM was replaced with transfection medium (10 mM HEPES, pH 7.4, 114 mM NaCl, 26.1 mM NaHCO3, 5.3 mM KCl, 1 mM MgCl2, 2 mM CaCl2, 30 mM glucose, 1 mM glycine, 0.5 mM C3H3NaO3, and 0.001% phenol red and 10% of phosphate-free Eagle's minimum essential medium, supplemented with 7.5 µg/ml insulin, 7.5 µg/ml transferrin and 7.5 ng/ml sodium selenite (ITS Liquid Media Supplement, Sigma-Aldrich Cat #I3146)). Primary hippocampal neurons were used in live cell imaging, cell death experiments, while cortical neurons were used for mRNA and protein extraction analysis.
All viral particles were produced and purified as known in the art. All TRPM4 derived peptides (comprising SEQ ID NO:5, or any of SEQ ID NO:46 to SEQ ID NO:56) were cloned into rAAV backbone by PCR. shRNA against mouse TRPM4 were designed by BLOCK-iT™ RNAi Designer from Thermofisher to target: […] (SEQ ID NO:44, shTRPM4-1) and […] (SEQ ID NO:45, shTRPM4-2). Scramble shRNA (shSCR) has been tested and proven to have no known targets in mice. GPI anchor ([…], e.g. used in SEQ ID NO:53) sequences were synthesized by Eurofins Genomics (Ebersberg, Germany). All primers were synthesized and all plasmids were confirmed by sequencing by Eurofins Genomics.
In order to investigate the role of TRPM4 in NMDA receptor mediated excitotoxicity, the inventors used RNA interference strategies to knock down TRPM4. Cultured primary mouse hippocampus neurons were infected on day 3 in vitro (DIV3) with recombinant adeno-associated viruses (rAAVs) providing for expression of a scramble control (shSCR), shTRPM4-1 (SEQ ID NO:44) or shTRPM4-2 (SEQ ID NO:45). On DIV15-16, neurons were challenged with N-methyl-D-aspartate (NMDA, 20 μM) for 10 min. After NMDA wash out, neurons were kept in the culture medium for another 24 h before analysis. […] Evidently, TRPM4 is thus involved in the process of NMDA receptor mediated excitotoxicity.
In a next step, the inventors tried to identify regions in the mouse TRPM4 protein potentially involved in NMDA receptor mediated excitotoxicity. For this purpose, polypeptide fragments of mouse TRPM4 protein were generated and their impact on NMDA induced excitotoxicity analysed. To do so, primary neuron cultures were infected with respective rAAVs on DIV3, challenged with NMDA (20 μM) for 10 min on DIV17 and cell death assessed 24 hours later.
The sequence of SEQ ID NO:5 in TRPM4 is located in vivo just beneath the plasma membrane. […] To test this hypothesis, the inventors created a fusion protein comprising SEQ ID NO:5 and a GPI anchor, SEQ ID NO:57. The sequence of the fusion is given in SEQ ID NO:53. Neurons infected with rAAV and expressing SEQ ID NO:47 (control) or SEQ ID NO:53 were exposed to NMDA (20 μM) for 10 min on DIV15-16, with cell death assessed after 24 h.
In a next step, the inventors created a mutant of SEQ ID NO:5, in which two adjacent phenylalanine residues where substituted by tyrosine residues (SEQ ID NO: 54). […] TRPM5 is a protein related to but nonetheless distinct to TRPM4. The region in TRPM5 corresponding to SEQ ID NO:5, SEQ ID NO:55, shares only about 60% sequence identity with SEQ ID NO:5. Neurons were infected on DIV3 with rAAVs expressing SEQ ID NO: 5, SEQ ID NO: 54 or SEQ ID NO:55 and exposed to NMDA (20 μM) for 10 min on DIV17, with cell death assessed 24 h later. […]

[4] = test system: primary mouse hippocampal neurons; test: NMDA receptor induced mitochondrial membrane potential breakdown (Rh123 imaging); format: cell-based; conditions: polypeptides expressed via rAAV; bath application of 20 μM NMDA
Description: Coverslips with primary cultured neurons (DIV15-DIV17) were used to examine mitochondrial membrane potential (Ψm) and mitochondrial calcium signalling, which was performed at room temperature in CO2-independent culture medium (CICM) containing: 10 mM HEPES, 140 mM NaCl, 2.5 mM KCl, 1.0 mM MgCl2, 2.0 mM CaCl2, 1.0 mM Glycine, 35.6 mM Glucose and 0.5 mM Na-pyruvate. All images were obtained by a cooled-CCD camera (iXon 887, Andor) on an upright microscope (BX51WI, Olympus). Fluorescence excitation was provided by a xenon arc lamp in combination with an excitation filter wheel (MT-20, Olympus). Data were collected using Cell^R software (Olympus), analysed using ImageJ and quantified using Igor Pro (WaveMetrics). Ψm was detected with the small molecule fluorescence indicator Rhodamine 123 (Rh123; Molecular Probe™, R302). Primary cultured neurons were loaded with 4.3 μM Rh123 in CICM at 37° C. for 30 min, then washed and left in CICM for another 30 min before recording. At the end of each experiment, the mitochondrial uncoupler FCCP (5 μM, Sigma-Aldrich, Cat #C2920) was applied to the cells to reach the maximal Rh123 fluorescence intensity. Rh123 was imaged with 470±20 nm excitation and 525±25 nm emission wavelengths using a 20× objective. Rh123 fluorescence intensity was measured in the nucleus to minimize contamination from cytosolic mitochondrial signal and Rh123 fluorescence intensity was normalized to the maximum FCCP signal for each region of interest.
Mitochondrial dysfunction is a hallmark of NMDA receptor excitotoxicity and an early event en-route to neuronal death. A parameter that is often used to assess mitochondrial integrity is the mitochondrial membrane potential. A breakdown of the mitochondrial membrane potential can be observed after exposure of hippocampal or cortical neurons to NMDA and indicates excitotoxicity-associated mitochondrial dysfunction. Therefore, the inventors investigated the effect of polypeptides comprising the sequence of SEQ ID NO:5 or SEQ ID NO: 54 as well as of the control TRMP5 sequence (SEQ ID NO: 55) on mitochondrial membrane potential break down in primary mouse hippocampal neurons. Excitotoxicity leading to mitochondrial membrane potential break down was induced with bath application of 20 μM NMDA. After 11 minutes, the mitochondrial uncoupler, carbonylcyanide-p-trifluoromethoxyphenylhydrazone (FCCP) was added. Addition of FCCP leads to break-down of the mitochondrial membrane potential and served as a control of the test system.

[5] = test system: primary mouse hippocampal neurons; test: NMDA induced cell death (excitotoxicity) in cultured primary neurons; format: cell-based; conditions: neurons incubated 1 h with 1 or 10 μg fusion protein before NMDA 20 μM 10 min; cell death 24 h later

CNCC1CCN(C(=O)c2ccc(-n3cnc4ccccc43)cc2)CC1 [P8]
NMDA receptor induced cell death [1]: reduced the level of NMDA receptor induced cell death

O=C(NCc1ccc(CN2CCC(O)CC2)cc1)C1CC(F)(F)CN1 (centres unmarked) [P9]
NMDA receptor induced cell death [1]: reduced the level of NMDA receptor induced cell death

CC1(CN)CCN(CC(=O)Nc2cc(Cl)ccc2Cl)C1 (centres unmarked) [P13]
NMDA receptor induced cell death [1]: reduced the level of NMDA receptor induced cell death

MK-801 maleate [reference compound]
NMDA-induced calcium transients [2]: completely blocked

SEQ ID NO:55: corresponding region of mouse TRPM5, about 60% sequence identity with SEQ ID NO:5, negative control (NSEDRAFALLVRRNHSWSRTTCLHLATEADAKAFFAHDGVQAFLTKIWWGDMATGTP; listed as Mus musculus) [reference compound]
protection against NMDA induced cell death (neuroprotective effect) [3]: not capable of reducing NMDA receptor-mediated cell toxicity
protection against NMDA induced cell death (neuroprotective effect) ([3]; listed as SEQ ID NO: 55): did not reduce NMDA receptor-mediated cell toxicity
NMDA receptor induced mitochondrial membrane potential breakdown [4]: not capable of preventing NMDA receptor induced mitochondrial membrane potential breakdown

B1: SEQ ID NO:56: fusion protein of SEQ ID NO:5 and protein transduction domain TAT (SEQ ID NO:42) (protein)
chain: RKKRRQRRRSQPNSEERAARLLLRRCPLWGEATCLQLAMQADARAFFAQDGVQSLLTQKWWGEMDSTTP
modifications: Fusion protein composed of TAT peptide and SEQ ID NO: 5
protection against NMDA excitotoxicity (cell death) [5]: protected neurons from NMDA excitotoxicity
